Test system: Xanthomonas maltophilia
Test: In vitro bactericidal activity, viable bacterial counts in proteose peptone
Assay type: cell-based
Conditions: free tobramycin 3,12 μg/ml, entrapped tobramycin 3,08 μg/ml, MIC >5 μg/ml
Procedure: To culture tubes containing proteose peptone (29 ml) a minimal number of 10^8 CFU of bacteria in logarithmic phase (1 ml) and of one of the following preparations (100 μl) were added at time zero: free tobramycin, control liposomes or PBS. Experiments were done in triplicate. At times 1, 3, 6, and 16 hours following the addition of antibiotic or controls, 2 ml of samples were collected and serial 10-fold dilutions were made and spread in triplicate on proteose peptone agar plates for gram negative strains and on […] for S. aureus. CFU were counted after 24-hour and 48-hourS incubations at 37° C. under 5% CO2. Counts were expressed in log CFU per ml of culture media.

NC[C@H]1O[C@H](O[C@H]2[C@H](O)[C@@H](O[C@H]3O[C@H](CO)[C@@H](O)[C@H](N)[C@H]3O)[C@H](N)C[C@@H]2N)[C@H](N)C[C@@H]1O [Free tobramycin, tobramycin]
Viable bacterial counts (0 h): 3.7 × 10^10 cfu | Viable bacterial counts (1 h): 3.00 × 10^12 cfu | Viable bacterial counts (3 h): 8.20 × 10^14 cfu | Viable bacterial counts (6 h): 7.80 × 10^16 cfu
